The subject of data set [1] is obese children who had steatosis. The settings on record: vitamin E 400-1000 IU/day for 4-10 months, cited from earlier work.
Data set [2] concerns obese individuals with NASH. To be noted: treated for 4-12 weeks; no reported change in body mass index; cited from earlier work.
Data set [3] relates to New Zealand white rabbits fed a high-fat diet (HFD). Nature of the data set: Pilot study: 7-day intraperitoneal cysteamine in rabbits fed a high-fat diet (NAFLD model). In kind it is in vivo, rabbit. To be noted: for mean LDL-cholesterol value: control HFD 272.5 mg/dL; for mean total cholesterol value: control HFD 842 mg/dL; for mean LDH value: control HFD 190 U/L; for increase in LDL-cholesterol compared to baseline values: control HFD about 29-fold; for increase in total cholesterol over baseline value: control HFD approximately 20-fold; for decrease in LDH compared to baseline values: control HFD increased 1.7-fold. The source says: (§1) J. Pathol., 170(3):967-980 (2007). Male New Zealand white rabbits were fed a high-fat diet (HFD) containing 20% corn oil and 1.25% cholesterol in order to induce clinical and histological features characteristic of NAFLD and non-alcoholic steatohepatitis (NASH).
Endpoints included daily standard clinical observations, quantitative daily food consumption, body weights on Study Day (SD) −1, 2, 5, and 8 (day of necropsy), and blood samples collected on SD-1 and SD8 for the evaluation of selected clinical chemistries (alanine aminotransferase (ALT), aspartate aminotransferase (AST), amylase, lipase, total cholesterol, triglycerides, lactate dehydrogenase (LDH), high density lipoprotein cholesterol (HDL-cholesterol), and low density lipoprotein cholesterol (LDL-cholesterol)) and a full hematology panel. Animals were sacrificed on SD8.

Data set [4] has as its system intracellular cystine (circulating white blood cells). The settings on record: taken regularly; measured in circulating white blood cells; cited from earlier work.
For another data set, the system named is leukocyte cystine. The settings on record: cited from earlier work.
Data set [5] relates to New Zealand white rabbits fed a high fat diet (HFD). The experiment in a line: 8-week study: cysteamine in drinking water in rabbits fed a high-fat diet (NAFLD/NASH model). The settings on record: for mean AST value: control HFD 117.1 U/L. In kind it is in vivo.
Text: as §1
The study design included five groups of eight rabbits.
Observations during the study included twice weekly body weights, daily food and water consumption, and daily clinical observations. Blood samples were collected prior to the start of the study, and on weeks 2, 6, and 8 for a full panel of hematology parameters and a selected panel of serum chemistries, including ALT, AST, amylase, lipase, total cholesterol, triglycerides, LDH, HDL-cholesterol, and LDL-cholesterol.

[6] abbreviates: delivery of cysteamine to the small intestine.
[7] abbreviates: week 8, 250 mg/kg/day in drinking water.

On to vitamin E, for which the “mean AST levels after treatment” value in data set [1] (decreased from 104±61 IU/L, P<0.002) is 33±11 IU/L. The “mean ALT levels after treatment” value in data set [1] (decreased from 175±106 IU/L, P<0.01) is listed as 40±26 IU/L.

As to `CC(=O)N[C@@H](CS)C(=O)O` [N-acetylcysteine], in data set [2], the “aminotransferase levels and gamma-GT” value is “improvement”.

Consider `NCCS` [cysteamine], for which the “LDH as % of the control HFD values on SD8” value in data set [3] (75 mg/kg/day IP Q8H) is on record as 33%. Moreover, the “LDH as % of the control HFD values on SD8” value in data set [3] (250 mg/kg/day IP Q8H) came out at 59%. Moreover, in data set [3] (SD8, 75 mg/kg/day IP Q8H), the “LDL-cholesterol: % less of an increase than the HFD controls” value amounted to 23%, the “total cholesterol: % less of an increase than the HFD controls” value is 23%, the “mean LDL-cholesterol value” is recorded as 210 mg/dL and the “mean total cholesterol value” is 652 mg/dL. Also, in data set [3] (SD8, 75 mg/kg/day IP Q8H), the “mean LDH value” is recorded as 128 U/L, the “increase in LDL-cholesterol compared to baseline values” is given as “about 12 fold”, the “increase in total cholesterol over baseline value” was about 12 fold and the “decrease in LDH compared to baseline values” turned out to be 1.2 fold. In data set [3] (SD8, 250 mg/kg/day IP Q8H), the “LDL-cholesterol: % less of an increase than the HFD controls” value was 45%, the “decrease in mean AST value vs control HFD group” value worked out at 1.9 fold, the “mean AST as % of the control HFD value” is reported as 47% and the “total cholesterol: % less of an increase than the HFD control values” turned out to be 59%. Further, in data set [3] (SD8, 250 mg/kg/day IP Q8H), the “mean LDL-cholesterol value” is 150.5 mg/dL, the “mean total cholesterol value” came to 347 mg/dL, the “mean LDH value” is listed as 77.5 U/L and the “increase in LDL-cholesterol compared to baseline values” is listed as “about 14 fold”. Also, in data set [3] (SD8, 250 mg/kg/day IP Q8H), the “increase in total cholesterol over baseline value” is about 7.5 fold and the “decrease in LDH compared to baseline values” is 3.1 fold. Further, the “mean AST value” in data set [3] (SD8, 250 mg/kg/day IP Q8H, control HFD group 19.0 U/L) came out at 10.0 U/L. Moreover, the “depletion of intracellular cystine” value in data set [4] is “up to 90%”. In addition, in the data set on leukocyte cystine (delivery into the small intestine), the “time to observed decrease in leukocyte cystine” value is given as “within an hour”. In the data set on leukocyte cystine (setting [6]), the AUC entry was “increases” and the Cmax entry was “increases”. Further, in data set [5] (cysteamine treated animals vs control HFD animals), the body weights result is reported as “parallel those of the control HFD animals”. Moreover, the “animals that died on study or were sacrificed moribund” value in data set [5] (rabbit, in vivo, 75 mg/kg/day) is listed as “Three”. The animals sacrificed moribund result in data set [5] (rabbit, in vivo, 250 mg/kg/day) was “One”. In data set [5] (summary of both rabbit studies), the “AST levels reduced compared to the HFD diet control animals” value is 1.6- to 1.9 fold and the “reductions of AST compared to the HFD diet control animals” value was in the range of 37 to 47%. In addition, the “mean AST value” in data set [5] (week 8, 25 mg/kg/day in drinking water) is listed as 62.5 U/L. In data set [5] (setting [7]), the “increase in HDL-cholesterol over the HFD control mean value” is recorded as 1.6 fold, the “increase in HDL-cholesterol over the control standard diet value” is 3.7 fold and the “mean AST value” was found to be 75.7 U/L. For the same compound, the “mean HDL-cholesterol value” in data set [5] (week 8, 250 mg/kg/day in drinking water, HFD control 36.9, standard diet 15.7 mg/dL) was determined as 58.3 mg/dL. The “mean LDH value” in data set [5] (week 8, 250 mg/kg/day in drinking water, HFD control 375 U/L, standard diet control 125.6 U/L) is on record as 140 U/L. Besides, the “change in LDH values compared to the Group 2 HFD controls” value in data set [5] (week 8, all three dose levels (25, 75, 250 mg/kg/day) in drinking water) is given as “decrease in LDH values at all three dose levels”.

Values taken from patent US10307386B2 (priority 2007, dated 2019).
